According to patent US8906908B2, “Hydroxybupropion analogues for treating drug dependence” (priority 2010, dated 2014):
Read-outs that look alike come from different tables or passages of the source.

Experiments:
α3β4*-nAChR = molecular target: T1, α3β4*-nAChR (Homo sapiens, UniProt P30926+P32297); assay: 86Rb+ efflux nAChR functional assay, SH-SY5Y cells; type: cell-based; conditions: EC80-EC90 carbamylcholine; SH-SY5Y; parentheses = S.E.M. as multiplication/division factor; read-out: nAChR inhibition IC50 α3β4±
T1 construct: other: EC80-EC90 carbamylcholine; SH-SY5Y; parentheses = S.E.M. as multiplication/division
T1 sequence (P32297 32-505): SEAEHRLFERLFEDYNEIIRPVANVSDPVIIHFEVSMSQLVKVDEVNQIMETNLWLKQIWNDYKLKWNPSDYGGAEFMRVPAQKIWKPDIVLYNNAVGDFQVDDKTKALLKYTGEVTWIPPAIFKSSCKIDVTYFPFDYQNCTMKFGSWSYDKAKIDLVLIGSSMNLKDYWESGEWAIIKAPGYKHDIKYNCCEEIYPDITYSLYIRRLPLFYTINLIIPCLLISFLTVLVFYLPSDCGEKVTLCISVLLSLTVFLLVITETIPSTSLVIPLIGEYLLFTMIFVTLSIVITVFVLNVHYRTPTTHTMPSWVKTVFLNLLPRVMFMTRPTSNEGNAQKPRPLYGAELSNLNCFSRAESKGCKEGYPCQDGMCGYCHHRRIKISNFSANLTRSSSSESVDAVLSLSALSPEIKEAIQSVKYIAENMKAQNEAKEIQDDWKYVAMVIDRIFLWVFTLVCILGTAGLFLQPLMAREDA
T1 sequence (P30926 22-498): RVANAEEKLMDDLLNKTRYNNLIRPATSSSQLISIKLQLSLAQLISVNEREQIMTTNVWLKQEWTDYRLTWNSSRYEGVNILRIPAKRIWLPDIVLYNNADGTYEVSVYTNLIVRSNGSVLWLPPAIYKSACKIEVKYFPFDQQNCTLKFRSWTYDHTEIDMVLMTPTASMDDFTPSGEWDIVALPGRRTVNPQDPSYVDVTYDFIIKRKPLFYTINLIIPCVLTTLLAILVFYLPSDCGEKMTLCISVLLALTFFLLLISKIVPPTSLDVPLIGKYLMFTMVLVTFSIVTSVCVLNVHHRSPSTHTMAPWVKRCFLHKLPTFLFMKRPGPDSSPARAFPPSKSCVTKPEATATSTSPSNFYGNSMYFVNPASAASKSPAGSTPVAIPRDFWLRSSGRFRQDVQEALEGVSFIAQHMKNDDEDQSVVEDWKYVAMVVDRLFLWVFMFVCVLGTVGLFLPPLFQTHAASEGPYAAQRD
Description: (§1) Cell Lines and Culture: Human embryonic kidney (HEK-293) cells stably expressing human DAT, NET or SERT were maintained as previously described in Eshleman, A. J.; Carmolli, M.; Cumbay, M.; Martens, C. R.; Neve, K. A.; Janowsky, A., J. Pharmacol. Exp. Ther. 1999, 289, (2), 877-885. Use was made of several human cell lines that naturally or heterologously express specific, functional, human nAChR subtypes. Cells of the TE671/RD line naturally expresses muscle-type nAChR (a1β1γδ- or α1*-nAChR), and SH-SY5Y neuroblastoma cells naturally expresses autonomic α3β4*-nAChRs (containing α3, β4, probably α5, and sometimes β2 subunits). Different clones of SH-EP1 epithelial cell lines have been engineered to heterologously express either α4β2-nAChR, which are thought to be the most abundant, high affinity nicotine-binding nAChR in mammalian brain, or α4β4-nAChR, another possible brain nAChR subtype (SH-EP1-hα4β2 or α4β4 cells, respectively). These cells were maintained as low passage number (1-26 from our frozen stocks) cultures to ensure stable expression of native or heterologously-expressed nAChR as previously described (see Lukas, R. J.; Fryer, J. D.; Eaton, J. B.; L., G. C., Some methods for studies of nicotinic acetylcholine receptor pharmacology, in Nicotinic receptors and the Nervous System, Levine, E. D., Ed. CRC Press: Boca Raton, 2002; pp 3-27, incorporated herein by reference in its entirety). Cells were passaged once weekly by splitting just-confluent cultures 1/300 (TE671/RD), 1/5 (SH-SY5Y), or 1/20 (transfected SH-EP1) in serum-supplemented medium to maintain log-phase growth.
(§2) After cells had adhered (generally overnight, but no sooner than 4 h later), the medium was removed and replaced with 250 μL per well of complete medium supplemented with ˜350,000 cpm of ^86Rb^+ (PerkinElmer Life and Analytical Sciences, Boston, Mass.) and counted at 40% efficiency using Cerenkov counting (TriCarb 1900 liquid scintillation analyzer[…]; PerkinElmer Life Sciences).
(§3) After at least 4 h and typically overnight, ^86Rb^+ efflux was measured using the “flip-plate” technique. See Lukas, R. J.; Fryer, J. D.; Eaton, J. B.; L., G. C., Some methods for studies of nicotinic acetylcholine receptor pharmacology, in Nicotinic receptors and the Nervous System, Levine, E. D., Ed. CRC Press: Boca Raton, 2002; pp 3-27, incorporated herein by reference in its entirety). Briefly, after aspiration of the bulk of ^86Rb^+ loading medium from each well of the “cell plate,” each well containing cells was rinsed 3× with 2 mL of fresh ^86Rb^+ efflux buffer (130 mM NaCl, 5.4 mM KCl, 2 mM CaCl2, 5 mM glucose, 50 mM HEPES, pH 7.4) to remove extracellular ^86Rb^+. Following removal of residual rinse buffer by aspiration, the flip-plate technique was used again to simultaneously introduce 1.5 mL of fresh efflux buffer containing drugs of choice at indicated final concentrations from a 24-well “efflux/drug plate” into the wells of the cell plate. After a 5 min incubation, the solution was “flipped” back into the efflux/drug plate, and any remaining buffer in the cell plate was removed by aspiration. Cells remaining in the cell plate were lysed and suspended by addition of 1.5 mL of 0.1 M NaOH, 0.1% sodium dodecyl sulfate to each well.
(§4) Similarly, the sum of ^86Rb^+ in cell plates and efflux/drug plates also determined the efficiency of ^86Rb^+ loading (the percentage of applied ^86Rb^+ actually loaded into cells).
(§5) Specific efflux was then taken as the difference in control samples between total and non-specific ^86Rb^+ efflux. Any intrinsic agonist activity of test drugs was ascertained using samples containing test drug only at different concentrations and was normalized, after subtraction of non-specific efflux, to specific efflux in test drug-free, control samples.

[1] = tested on: Male Institute of Cancer Research (ICR) mice; assay: Locomotor activity, antagonism of nicotine effect; type: in vivo; conditions: pretreatment 15 min before nicotine […] s.c.
Description: (§6) Animals: Male Institute of Cancer Research (ICR) mice (weighing 20-25 g) obtained from Harlan (Indianapolis, Ind.) were used throughout the study. Animals were housed in an Association for Assessment and Accreditation of Laboratory Animal Care-approved facility, were placed in groups of six, and had free access to food and water. Studies were approved by the Institutional Animal Care and Use Committee of Virginia Commonwealth University.
Locomotor Activity: Mice were placed into individual Omnitech photocell activity cages (28×16.5 cm; Omnitech Electronics, Columbus, Ohio) 5 min after subcutaneous administration of either 0.9% saline or nicotine (1.5 mg/kg). Interruptions of the photocell beams (two banks of eight cells each) were then recorded for the next 10 min. Data were expressed as the number of photocell interruptions.

[2] = molecular target: T2, human DA transporters [(h)DAT] (Homo sapiens, UniProt Q01959); assay: Inhibition of [3H]dopamine uptake into HEK293 cells stably expressing hDAT; type: cell-based
T2 construct: expressed in transfected cells; host or cells: HEK-293
T2 sequence (Q01959 whole entry): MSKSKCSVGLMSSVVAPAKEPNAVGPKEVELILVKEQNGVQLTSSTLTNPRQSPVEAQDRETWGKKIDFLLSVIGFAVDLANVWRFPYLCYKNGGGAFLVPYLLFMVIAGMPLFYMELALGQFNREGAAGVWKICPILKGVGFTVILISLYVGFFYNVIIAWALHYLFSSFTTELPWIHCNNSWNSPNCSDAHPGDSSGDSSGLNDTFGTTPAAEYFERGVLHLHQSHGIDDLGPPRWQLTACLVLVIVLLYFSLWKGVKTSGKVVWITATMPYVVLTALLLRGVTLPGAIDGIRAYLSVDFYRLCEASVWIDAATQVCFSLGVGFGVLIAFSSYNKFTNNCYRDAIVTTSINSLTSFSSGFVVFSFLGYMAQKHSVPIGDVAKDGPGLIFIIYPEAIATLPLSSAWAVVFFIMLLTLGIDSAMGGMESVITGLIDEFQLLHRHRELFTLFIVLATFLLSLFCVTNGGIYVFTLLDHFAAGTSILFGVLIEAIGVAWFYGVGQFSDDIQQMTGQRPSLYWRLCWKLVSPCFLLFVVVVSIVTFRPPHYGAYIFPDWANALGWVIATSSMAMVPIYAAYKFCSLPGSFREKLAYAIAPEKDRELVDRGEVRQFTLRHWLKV
Description: as §1
(§7) See, for example, Damaj, M. I.; Carroll, F. I.; Eaton, J. B.; Navarro, H. A.; Blough, B. E.; Mirza, S.; Lukas, R. J.; Martin, B. R., Mol. Pharmacol. 2004, 66, (3), 675-682 and Eshleman, A. J.; Carmolli, M.; Cumbay, M.; Martens, C. R.; Neve, K. A.; Janowsky, A., J. Pharmacol. Exp. Ther. 1999, 289, (2), 877-885, both incorporated by reference herein in their entireties.

[3] = tested on: Male Institute of Cancer Research (ICR) mice; assay: Body temperature, antagonism of nicotine-induced hypothermia; type: in vivo; conditions: pretreatment 15 min before nicotine 2.5 mg/kg s.c., tested 30 min after nicotine
Procedure: as §6
Body Temperature: Rectal temperature was measured by a thermistor probe (inserted 24 mm) and digital thermometer (YSI Inc., Yellow Springs, Ohio). Readings were taken just before and 30 min after subcutaneous injection of either saline or 2.5 mg/kg nicotine. The difference in rectal temperature before and after treatment was calculated for each mouse. The ambient temperature of the laboratory varied from 21 to 24° C. from day to day. […] The animals were then tested 30 min after administration of a subcutaneous dose of 2.5 mg/kg nicotine.

α4β4-nAChR = molecular target: T3, α4β4-nAChR (Homo sapiens, UniProt P30926+P43681); assay: 86Rb+ efflux nAChR functional assay, SH-EP1-hα4β4 cells; type: cell-based; conditions: EC80-EC90 carbamylcholine, parentheses = S.E.M. as multiplication/division factor, read-out: nAChR inhibition IC50 α4β4
T3 construct: expressed in transfected cells; host or cells: SH-EP1 epithelial cells (SH-EP1-hα4β4)
T3 sequence (P43681 29-627 limits assumed): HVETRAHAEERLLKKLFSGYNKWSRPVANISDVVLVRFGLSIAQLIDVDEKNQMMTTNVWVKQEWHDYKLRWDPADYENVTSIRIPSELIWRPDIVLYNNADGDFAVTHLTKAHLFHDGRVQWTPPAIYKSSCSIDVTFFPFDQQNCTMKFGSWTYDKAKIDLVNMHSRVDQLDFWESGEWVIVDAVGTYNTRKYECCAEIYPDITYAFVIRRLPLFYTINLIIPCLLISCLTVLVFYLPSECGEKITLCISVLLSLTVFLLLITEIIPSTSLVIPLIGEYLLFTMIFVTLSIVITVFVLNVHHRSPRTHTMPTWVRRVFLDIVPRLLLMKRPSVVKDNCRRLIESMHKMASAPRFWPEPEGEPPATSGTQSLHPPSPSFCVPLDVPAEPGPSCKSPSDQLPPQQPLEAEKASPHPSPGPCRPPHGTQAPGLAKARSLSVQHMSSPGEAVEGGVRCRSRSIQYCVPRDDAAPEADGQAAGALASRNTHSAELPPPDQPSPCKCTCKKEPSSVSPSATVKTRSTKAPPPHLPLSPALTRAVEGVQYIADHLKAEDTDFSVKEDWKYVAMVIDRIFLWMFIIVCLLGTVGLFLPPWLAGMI
T3 sequence (P30926 22-498): as the sequence (P30926 22-498) above
Description: as §1, §2, §3, §4, §5

[4] = molecular target: T4, 5HT transporters [(h)SERT] (Homo sapiens, UniProt P31645); assay: Inhibition of [3H]serotonin uptake into HEK293 cells stably expressing hSERT; type: cell-based
T4 construct: expressed in transfected cells; host or cells: HEK-293
T4 sequence (P31645 whole entry): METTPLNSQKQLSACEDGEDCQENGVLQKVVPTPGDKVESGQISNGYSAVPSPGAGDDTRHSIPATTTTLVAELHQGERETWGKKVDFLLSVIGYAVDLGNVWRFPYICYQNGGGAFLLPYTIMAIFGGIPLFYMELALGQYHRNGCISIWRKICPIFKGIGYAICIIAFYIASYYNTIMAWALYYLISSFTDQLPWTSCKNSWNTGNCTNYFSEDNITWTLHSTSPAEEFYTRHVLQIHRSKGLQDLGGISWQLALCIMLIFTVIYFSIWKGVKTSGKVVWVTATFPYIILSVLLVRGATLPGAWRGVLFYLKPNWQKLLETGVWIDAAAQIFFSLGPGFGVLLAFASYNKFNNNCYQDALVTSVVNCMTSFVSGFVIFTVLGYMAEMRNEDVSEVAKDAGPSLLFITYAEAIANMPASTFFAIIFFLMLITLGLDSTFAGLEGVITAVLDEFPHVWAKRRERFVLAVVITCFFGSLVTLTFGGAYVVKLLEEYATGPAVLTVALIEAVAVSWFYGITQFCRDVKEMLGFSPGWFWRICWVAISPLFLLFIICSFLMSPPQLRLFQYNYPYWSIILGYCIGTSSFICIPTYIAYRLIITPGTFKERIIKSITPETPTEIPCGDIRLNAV
Description: as §1, §7

[5] = HEK293-hDAT, mean ± standard error of three independent experiments, read-out: monoamine uptake inhibition IC50 [3H]DA
[6] = HEK293-hSERT, mean ± standard error of three independent experiments, read-out: monoamine uptake inhibition IC50 [3H]5HT

COc1cccc([C@]2(O)OCC(C)(C)N[C@H]2C)c1 [Compound 4f, (2S,3S)-2-(3-Methoxyphenyl)-3,5,5-trimethylmorpholin-2-ol]
IC50 (α3β4*-nAChR): 11 µM | AD50 Locomotion [1]: IA (IA: AD50 > 15 mg/kg) | IC50 [2, 5]: 16000 nM | AD50 Hypothermia [3]: IA (IA: AD50 > 15 mg/kg) | IC50 (α4β4-nAChR): > 100 µM | IC50 [4, 6]: > 10 µM

C[C@@H]1N(C)C(C)(C)CO[C@@]1(O)c1ccc(Cl)cc1 [Compound 4v, (2S,3S)-2-(4-Chlorophenyl)-3,4,5,5-tetramethylmorpholin-2-ol]
IC50 (α3β4*-nAChR): 4.6 µM | AD50 Locomotion [1]: IA (IA: AD50 > 15 mg/kg) | IC50 [2, 5]: 2870 ± 820 nM | AD50 Hypothermia [3]: IA (IA: AD50 > 15 mg/kg) | IC50 (α4β4-nAChR): 91 µM | IC50 [4, 6]: 6.48 ± 1.28 µM

COc1ccc([C@]2(O)OCC(C)(C)N[C@H]2C)cc1 [Compound 4k, (2S,3S)-2-(4-Methoxyphenyl)-3,5,5-trimethylmorpholin-2-ol]
IC50 (α3β4*-nAChR): 11 µM | AD50 Locomotion [1]: IA (IA: AD50 > 15 mg/kg) | IC50 [2, 5]: > 10000 nM | AD50 Hypothermia [3]: IA (IA: AD50 > 15 mg/kg) | IC50 (α4β4-nAChR): 72 µM | IC50 [4]: > 10 µM

C[C@@H]1NC(C)(C)CO[C@@]1(O)c1cc(F)cc(F)c1 [Compound 4o, (2S,3S)-2-(3,5-Difluorophenyl)-3,5,5-trimethylmorpholin-2-ol]
IC50 (α3β4*-nAChR): 11 µM | AD50 Locomotion [1]: IA (IA: AD50 > 15 mg/kg) | IC50 [2, 5]: 1020 ± 190 nM | AD50 Hypothermia [3]: IA (IA: AD50 > 15 mg/kg) | IC50 (α4β4-nAChR): 62 µM | IC50 [4, 6]: > 10 µM

C[C@@H]1NC(C)(C)CO[C@@]1(O)c1ccc(-c2ccccc2)cc1 [Compound 4l, (2S,3S)-2-Biphenyl-4-yl-3,5,5-trimethylmorpholin-2-ol]
IC50 (α3β4*-nAChR): 1.3 µM | AD50 Locomotion [1]: IA (IA: AD50 > 15 mg/kg) | IC50 [2]: > 10000 nM | AD50 Hypothermia [3]: IA (IA: AD50 > 15 mg/kg) | IC50 (α4β4-nAChR): 8.1 µM | IC50 [4]: > 10 µM

C[C@@H]1NC(C)(C)CO[C@@]1(O)c1ccc(Cl)cc1 [Compound 4i, (2S,3S)-2-(4-Chlorophenyl)-3,5,5-trimethylmorpholin-2-ol]
IC50 (α3β4*-nAChR): 5.1 µM | AD50 Locomotion [1]: IA (IA: AD50 > 15 mg/kg) | IC50 [2, 5]: 285 nM | AD50 Hypothermia [3]: IA (IA: AD50 > 15 mg/kg) | IC50 (α4β4-nAChR): 33 µM | IC50 [4, 6]: 4.6 ± 0.9 µM
